Results as given in patent publication US20260263593A1, “ALLERGY ANTIGEN AND EPITOPE THEREOF” (HOYU CO., LTD., priority 2018, published 2026).

test system: IgE antibody present in the serum of a shrimp-allergic patient; assay: Epitope mapping (1): array of overlapping 15-amino-acid peptides, chemiluminescence; assay type: binding, human; details: 15-amino-acid peptide array; serum of 37 patients; difference from N2nd value of 5 non-shrimp-allergic subjects at least 35,000
Description: Epitope mapping was carried out using a library of overlapping peptides (length: 15 amino acids) corresponding to the amino acid sequences identified as allergy components of shrimp and the amino acid sequence of arginine kinase. Specifically, the library of overlapping peptides was prepared on the basis of the amino acid sequences of SEQ ID NOs: 117, 141, 146, 2, 45, 87, 276, 161, 230, 179, 362, 381, 399, 421, 455, 481, 486, 520, 541, 300 and 306, and arginine kinase.
The peptides to be synthesized were shifted by 10 amino acids.
For preparation of peptide arrays, the Intavis CelluSpots™ technique was used. Specifically, the peptide arrays were prepared by the following procedure: (1) synthesizing peptides of interest on amino-modified cellulose disks using an automated chemical synthesis apparatus (Intavis MultiPep RS), (2) dissolving the amino-modified cellulose disks to obtain a cellulose-bound peptide solution, and (3) spotting the cellulose-bound peptides onto coated glass slides. The details of each procedure are as described below.
Peptide synthesis was carried out in incremental steps through 9-fluorenylmethoxycarbonyl (Fmoc) chemical reaction on amino-modified cellulose disks in 384-well synthesis plates. Specifically, amino acids in which a Fmoc group is bonded to an amino group were activated in a solution of N,N′-diisopropylcarbodiimide (DIC) and 1-hydroxybenzotriazole (HOBt) in dimethylformamide (DMF) and added dropwise to the cellulose disks so that the Fmoc group-bound amino acids were bound to the amino groups on the cellulose disks (coupling). Unreacted amino groups were capped with acetic anhydride and washed with DMF. Furthermore, the Fmoc groups were eliminated from the amino groups of the amino acids bound to the amino groups on the cellulose disks by treatment with piperidine and washing with DMF. The amino acids bound to the amino groups on the cellulose disks were repetitively subjected to the coupling, the capping, and the Fmoc group elimination described above to elongate the amino terminus for peptide synthesis.
The peptides-bound cellulose disks of interest obtained above in the subsection titled “(1) Synthesis of peptide” were transferred to 96-well plates and treated with a side chain deprotection mixed solution of trifluoroacetic acid (TFA), dichloromethane, triisopropylsilane (TIPS), and water for deprotection of amino acid side chains. Then, the deprotected cellulose-bound peptides were dissolved in a mixed solution of TFA, trifluoromethanesulfonic acid (TFMSA), TIPS, and water and precipitated in tetrabutyl methyl ether (TBME), and the precipitate was resuspended in dimethyl sulfoxide (DMSO) and mixed with a mixed solution of NaCl, sodium citrate, and water to obtain a peptide solution for slide spotting.
The peptide solution for slide spotting obtained above in the subsection titled “(2) Dissolution of amino-modified cellulose disk” was spotted onto Intavis CelluSpots™ slides using Intavis Slide Spotting Robot, and the slides were dried to prepare peptide arrays.
The presence or absence of binding, to each peptide fragment, of an IgE antibody present in the serum of a shrimp-allergic patient was measured through antigen-antibody reaction using the peptide arrays. […]

| Substance | Peptide bound to an IgE antibody in serum in a patient-specific manner |
| --- | --- |
| E28: common 15-residue IgE-binding epitope sequence of polypeptide (E28), myosin heavy chain type 1-derived (RGYHIFYQLMCDQID; VAR_SEQ 1..15 epitope) [Epitope E28] | bound to an IgE antibody in serum in a patient-specific manner |
| E33: common 15-residue IgE-binding epitope sequence of polypeptide (E33), myosin heavy chain type 1-derived (TKPYDPKKSCWVPDD; VAR_SEQ 1..15 epitope) [Epitope E33] | bound to an IgE antibody in serum in a patient-specific manner |
| E41: common 15-residue IgE-binding epitope sequence of polypeptide (E41), myosin heavy chain type 1-derived (MTQETVADIERQHKD; VAR_SEQ 1..15 epitope) [Epitope E41] | bound to an IgE antibody in serum in a patient-specific manner |
| E36: common 15-residue IgE-binding epitope sequence of polypeptide (E36), myosin heavy chain type 1-derived (GNMKFKQRGREEQAE; VAR_SEQ 1..15 epitope) [Epitope E36] | bound to an IgE antibody in serum in a patient-specific manner |
| E2: common 15-residue IgE-binding epitope sequence of polypeptide (E2), myosin heavy chain type 1-derived (ARVISQSPAERGYHI; VAR_SEQ 1..15 epitope) [Epitope E2] | bound to an IgE antibody in serum in a patient-specific manner |
| E42: common 15-residue IgE-binding epitope sequence of polypeptide (E42), myosin heavy chain type 1-derived (QLEDTKKMVDDESRE; VAR_SEQ 1..15 epitope) [Epitope E42] | bound to an IgE antibody in serum in a patient-specific manner |
| E21: common 15-residue IgE-binding epitope sequence of polypeptide (E21), troponin I-derived (MADEEAKKKQEEIDR; VAR_SEQ 1..15 epitope) [Epitope E21] | bound to an IgE antibody in serum in a patient-specific manner |
| E18: common 15-residue IgE-binding epitope sequence of polypeptide (E18), phosphopyruvate hydratase-derived (NKLAMQEFMILPTGA; VAR_SEQ 1..15 epitope) [Epitope E18] | bound to an IgE antibody in serum in a patient-specific manner |
| E49: common 15-residue IgE-binding epitope sequence of polypeptide (E49), troponin I-derived (RKKKLRLLLRKKAAE; VAR_SEQ 1..15 epitope) [Epitope E49] | bound to an IgE antibody in serum in a patient-specific manner |
| E3: common 15-residue IgE-binding epitope sequence of polypeptide (E3), myosin heavy chain type 1-derived (GYKDQLANLMKTLNA; VAR_SEQ 1..15 epitope) [Epitope E3] | bound to an IgE antibody in serum in a patient-specific manner |
| E29: common 15-residue IgE-binding epitope sequence of polypeptide (E29), myosin heavy chain type 1-derived (QRYNILAAKEMLEAK; VAR_SEQ 1..15 epitope) [Epitope E29] | bound to an IgE antibody in serum in a patient-specific manner |
| E43: common 15-residue IgE-binding epitope sequence of polypeptide (E43), myosin heavy chain type 1-derived (EIDKRIQEKEEEFDA; VAR_SEQ 1..15 epitope) [Epitope E43] | bound to an IgE antibody in serum in a patient-specific manner |
